This is an account of results in ChEMBL document CHEMBL4311969, “Polygala tenuifolia-Acori tatarinowii herbal pair as an inspiration for substituted cinnamic α-asaronol esters: Design, synthesis, anticonvulsant activity, and inhibition of lactate dehydrogenase study” (Eur J Med Chem, 2019).

Series [1] has as its system Mus musculus. Kind of series: Anticonvulsant activity in Kunming mouse assessed as MES-induced hind limb extension at 100 mg/kg, ip administered 0. 5 to 2 hrs before MES stimulation. The series is classed as functional, organism-based.
Series [2] in a line: Neurotoxicity against Kunming mouse assessed as time remained in rod at 100 mg/kg, ip administered 0.5 to 2 hrs by rotarod test. The following applies: in vivo. The series is classed as toxicity, organism-based.
The species entered for series [3] is Homo sapiens. In words: Inhibition of human LDH1 at 0.5 mM using sodium pyruvate as substrate by UV-VIS spectrophotometry method relative to control.
Series [4] is filed under the species Homo sapiens. In words: Inhibition of human LDH5 at 0.5 mM using sodium pyruvate as substrate by UV-VIS spectrophotometry method relative to control.
Series [5] is filed under the species Homo sapiens. Kind of series: Inhibition of human LDH1 at 2 mM using sodium pyruvate as substrate by UV-VIS spectrophotometry method relative to control.
Series [6] has as its target T1, GABA-A receptor; alpha-1/beta-2/gamma-2 (Homo sapiens, UniProt P14867+P18507+P47870).
T1 sequence (P14867 whole entry): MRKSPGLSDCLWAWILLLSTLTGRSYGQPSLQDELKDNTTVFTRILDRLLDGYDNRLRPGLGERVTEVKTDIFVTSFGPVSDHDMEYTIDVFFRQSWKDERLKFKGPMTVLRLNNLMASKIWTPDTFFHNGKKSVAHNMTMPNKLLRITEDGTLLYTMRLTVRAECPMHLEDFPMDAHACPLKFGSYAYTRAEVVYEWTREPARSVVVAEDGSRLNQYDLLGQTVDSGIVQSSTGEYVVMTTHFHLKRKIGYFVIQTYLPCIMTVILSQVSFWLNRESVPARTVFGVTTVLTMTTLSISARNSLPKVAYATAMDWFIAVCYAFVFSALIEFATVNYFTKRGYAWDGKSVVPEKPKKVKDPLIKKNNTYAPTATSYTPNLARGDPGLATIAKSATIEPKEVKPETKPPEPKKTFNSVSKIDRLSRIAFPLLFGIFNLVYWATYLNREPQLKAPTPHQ
T1 sequence (P47870 whole entry): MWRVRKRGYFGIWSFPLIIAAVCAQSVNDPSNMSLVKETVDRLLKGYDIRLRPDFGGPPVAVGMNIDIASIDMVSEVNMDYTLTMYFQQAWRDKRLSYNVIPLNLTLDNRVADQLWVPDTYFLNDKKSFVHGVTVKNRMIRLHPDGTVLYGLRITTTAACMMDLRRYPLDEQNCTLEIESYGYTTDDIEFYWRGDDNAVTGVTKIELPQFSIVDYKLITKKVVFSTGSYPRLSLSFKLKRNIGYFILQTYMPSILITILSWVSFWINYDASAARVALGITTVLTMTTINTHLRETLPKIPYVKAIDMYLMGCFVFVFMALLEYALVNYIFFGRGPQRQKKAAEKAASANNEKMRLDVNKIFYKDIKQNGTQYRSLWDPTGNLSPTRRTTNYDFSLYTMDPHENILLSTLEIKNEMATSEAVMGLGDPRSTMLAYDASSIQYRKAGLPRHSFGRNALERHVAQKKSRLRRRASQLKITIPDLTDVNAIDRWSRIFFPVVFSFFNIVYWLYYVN
T1 sequence (P18507 whole entry): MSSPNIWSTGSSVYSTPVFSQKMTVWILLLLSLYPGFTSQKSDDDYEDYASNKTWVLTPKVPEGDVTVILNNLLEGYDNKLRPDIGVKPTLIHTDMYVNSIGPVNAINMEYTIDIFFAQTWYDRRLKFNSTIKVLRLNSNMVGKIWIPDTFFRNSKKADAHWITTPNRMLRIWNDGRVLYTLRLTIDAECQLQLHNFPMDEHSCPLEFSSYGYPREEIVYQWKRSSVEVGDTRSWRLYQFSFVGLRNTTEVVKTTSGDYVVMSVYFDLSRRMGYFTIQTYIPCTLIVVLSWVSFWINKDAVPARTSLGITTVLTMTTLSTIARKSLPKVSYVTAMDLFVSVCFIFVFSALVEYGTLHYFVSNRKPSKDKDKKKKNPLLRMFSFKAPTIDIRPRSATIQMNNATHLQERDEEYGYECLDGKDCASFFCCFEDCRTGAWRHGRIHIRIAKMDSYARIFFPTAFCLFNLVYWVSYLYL
Kind of series: Agonist activity at GABA alpha1beta2gamma2 receptor in human HEK293T at -50 mV holding potential by whole cell voltage clamp assay. The series is classed as protein-complex assay.

Series [7] has as its target GABA-A receptor; alpha-1/beta-2/gamma-2 (Homo sapiens) (UniProt P14867+P47870+P18507). Kind of series: Agonist activity at GABA alpha1beta2gamma2 receptor in human HEK293T at 3.3 to 300 uM at -50 mV holding potential by whole cell voltage clamp assay relative to control. The series is classed as protein-complex assay.
For series [8], the species on record is Homo sapiens. Kind of series: Inhibition of human LDH5 at 2 mM using sodium pyruvate as substrate by UV-VIS spectrophotometry method relative to control.
Series [9] deals with Mus musculus. Kind of series: Anticonvulsant activity in Kunming mouse assessed as reduction in Sc3-MP-induced clonic seizure rate at 300 mg/kg, ip administered 0.5 hrs before Sc3-MP stimulation relative to control. The series is classed as functional. Also on record: scale not given: the % may be the effect or the level left.
The test system of series [10] is Mus musculus. Kind of series: Anticonvulsant activity in Kunming mouse assessed as reduction in Sc3-MP-induced tonic seizure rate at 300 mg/kg, ip administered 0.5 hrs before Sc3-MP stimulation relative to control. Also on record: scale not given: the % may be the effect or the level left. The series is classed as functional.
Series [11] relates to Mus musculus. In words: Anticonvulsant activity in Kunming mouse assessed as MES-induced hind limb extension at 100 mg/kg, ip administered 3 hrs before MES stimulation. The series is classed as functional, organism-based.
Series [12] relates to Mus musculus. In words: Anticonvulsant activity in Kunming mouse assessed as MES-induced hind limb extension at 50 mg/kg, ip administered 0.5 to 4 hrs before MES stimulation relative to control. The series is classed as functional.
Series [13] relates to Mus musculus. In words: Anticonvulsant activity in Kunming mouse assessed as reduction in ScPTZ-induced seizure at 300 mg/kg, ip administered 0.25 to 2 hrs before ScPTZ stimulation relative to control. Also on record: scale not given: the % may be the effect or the level left. The series is classed as functional.
The test system of series [14] is Mus musculus. Kind of series: Anticonvulsant activity in Kunming mouse assessed as reduction in ScPTZ-induced seizure at 100 mg/kg, ip administered 0.25 to 2 hrs before ScPTZ stimulation relative to control. The series is classed as functional.
The subject of series [15] is Mus musculus. Kind of series: Anticonvulsant activity in Kunming mouse assessed as reduction in ScPTZ-induced seizure at 100 mg/kg, ip administered 0.5 hrs before ScPTZ stimulation relative to control. The series is classed as functional. On the set-up: scale not given: the % may be the effect or the level left.
For series [16], the system named is Mus musculus. Kind of series: Anticonvulsant activity in Kunming mouse assessed as reduction in ScPTZ-induced seizure at 100 mg/kg, ip administered 1 hr relative to control. The series is classed as functional. Also on record: scale not given: the % may be the effect or the level left.
The subject of series [17] is Mus musculus. In words: Anticonvulsant activity in Kunming mouse assessed as reduction in ScPTZ-induced clonic seizure at 300 mg/kg, ip administered 0.5 hrs before ScPTZ stimulation relative to control. The series is classed as functional. Also on record: scale not given: the % may be the effect or the level left.
Series [18] deals with Mus musculus. Kind of series: Anticonvulsant activity in Kunming mouse assessed as reduction in ScPTZ-induced clonic seizure at 100 mg/kg, ip administered 0.5 hrs before ScPTZ stimulation relative to control. The series is classed as functional. On the set-up: scale not given: the % may be the effect or the level left.
For series [19], the system named is Mus musculus. In words: Anticonvulsant activity in Kunming mouse assessed as reduction in ScPTZ-induced tonic seizure rate at 300 mg/kg, ip administered 0.5 hrs before ScPTZ stimulation relative to control. The series is classed as functional. On the set-up: scale not given: the % may be the effect or the level left.
For series [20], the system named is Mus musculus. Kind of series: Anticonvulsant activity in Kunming mouse assessed as reduction in ScPTZ-induced tonic seizure rate at 100 mg/kg, ip administered 0.5 hrs before ScPTZ stimulation relative to control. The series is classed as functional. Also on record: scale not given: the % may be the effect or the level left.
Series [21] relates to Mus musculus. In words: Anticonvulsant activity in Kunming mouse assessed as reduction in Sc3-MP-induced seizure at 300 mg/kg, ip administered 0.25 to 2 hrs before Sc3-MP stimulation relative to control. The series is classed as functional. Also on record: scale not given: the % may be the effect or the level left.
The test system of series [22] is Mus musculus. Kind of series: Anticonvulsant activity in ip dosed Kunming mouse assessed as MES-induced hind limb extension administered 0.5 hrs before MES stimulation. The series is classed as functional.
Series [23] relates to Mus musculus. In words: Anticonvulsant activity in ip dosed Kunming mouse assessed as reduction in ScPTZ-induced seizure administered 0.5 hrs before ScPTZ stimulation. The series is classed as functional.
Series [24] relates to Mus musculus. Kind of series: Anticonvulsant activity in Kunming mouse assessed as reduction in Sc3-MP-induced seizure ip dosed measured at 0.5 hrs before Sc3-MP stimulation. The series is classed as functional.
Series [25] concerns Mus musculus. In words: […] activity in ip dosed Kunming mouse assessed as reduction in formalin-induced paw licking administered 0.5 hrs before formalin stimulation. The series is classed as functional.
A short description of series [26]: Neurotoxicity against ip dosed Kunming mouse assessed as time remained in rod measured at 0.5 hrs by rotarod test. The series is classed as toxicity, organism-based. Particulars: in vivo.
Series [27] in a line: Protective index, ratio of TD50 for neurotoxicity against ip dosed Kunming mouse assessed as time remained in rod measured at 0.5 hrs by rotarod test to ED50 for anticonvulsant activity in ip dosed Kunming mouse assessed as MES-induced hind limb extension administered 0.5 hrs. The series is classed as toxicity, organism-based. Particulars: in vivo, read-out: PI.
Series [28] in a line: Protective index, ratio of TD50 for neurotoxicity against ip dosed Kunming mouse assessed as time remained in rod measured at 0.5 hrs by rotarod test to ED50 for anticonvulsant activity in ip dosed Kunming mouse assessed as reduction in ScPTZ-induced seizure administered 0.5 hrs before ScPTZ stimulation. The series is classed as toxicity, organism-based. Particulars: in vivo, read-out: PI.

The nature of series [29]: Protective index, ratio of TD50 for neurotoxicity against ip dosed Kunming mouse assessed as time remained in rod measured at 0.5 hrs by rotarod test to ED50 for anticonvulsant activity in ip dosed Kunming mouse assessed as reduction in Sc3-MP-induced seizure administered 0.5 hrs before Sc3-MP stimulation. Particulars: in vivo, read-out: PI. The series is classed as toxicity, organism-based.

Series [30] can be described thus: Protective index, ratio of TD50 for neurotoxicity against ip dosed Kunming mouse assessed as time remained in rod measured at 0.5 hrs by rotarod test to ED50 for […] activity in ip dosed Kunming mouse assessed as reduction in formalin-induced paw licking administered 0.5 hrs before formalin stimulation. The series is classed as toxicity, organism-based. The following applies: in vivo, read-out: PI.

Series [31] deals with Mus musculus. Kind of series: Anticonvulsant activity in Kunming mouse assessed as MES-induced hind limb extension at 100 mg/kg, ip administered 0. 5 to 4 hrs before MES stimulation relative to control. The series is classed as functional.

Where “and” joins values, the source holds several entries; their conditions need not be identical. Equal values may be shown once. Calls of active or inactive are those of the source. The rule behind the calls is not given here.

With `CC(C)(C)C(O)/C=C/c1ccc2c(c1)OCO2` (stereo not given) [STIRIPENTOL], the result with Mus musculus [1] was Active. Also, in [2], the Activity entry was “Non-Toxic”. In addition, the inhibition entry in the series filed under Homo sapiens [3] and in the series filed under Homo sapiens [4] was “inactive” in each case. For the same compound, the inhibition in the series listed under Homo sapiens [5] and in the series filed under Homo sapiens [8] was 7 to 10% in each case. The EC50 in series [6] stood at 46 µM. In series [7], this compound returned a %max of 310%.
In the case of `COc1ccc(/C=C/C(=O)OC/C=C/c2cc(OC)c(OC)cc2OC)cc1`, the Activity with Mus musculus [9] is recorded as 100%; in the series with Mus musculus [10], 100%; in series [2] it was “Non-Toxic”; in the series on Mus musculus [12], 50%; in the series on Mus musculus [13] it was 50%; in the series on Mus musculus [15] it was 100%. Further, the Activity in the series on Mus musculus [16] came to 75%; in the series with Mus musculus [17] it was 100%; with Mus musculus [18], 100%; with Mus musculus [19], 0%; with Mus musculus [20], 100%; in the series with Mus musculus [21] it was 0%. For the same compound, in the series on Mus musculus [31], the Activity is 25 - 100%. Moreover, the outcome in the series on Mus musculus [1] and in the series on Mus musculus [11] was Active. Also, in the series with Mus musculus [14], the result was inactive. For the same compound, the ED50 with Mus musculus [22] is 70.6 mg/kg and 184 µmol/kg; with Mus musculus [23], 244 mg/kg and 634 µmol/kg; with Mus musculus [24] it was > 300 mg/kg and > 780 µmol/kg; with Mus musculus [25] it was 122 mg/kg and 317 µmol/kg. The TD50 at 0.5 h in [26] is > 1000 mg/kg and > 2600 µmol/kg. Besides, the selectivity ratio at 0.5 h in series [27] was above 14.2; in [28], above 4.1; in series [29] it was 3.3; in series [30] it was above 8.2. Also, the inhibition result in the series filed under Homo sapiens [3] and in the series listed under Homo sapiens [4] was “inactive” throughout.
